Experimental findings from US10913727B2, “Modulators of the integrated stress pathway” (Calico Life Sciences LLC, priority 2016, dated 2021) are described below.

The term EC50 denotes the concentration that produces a half-maximal response.

The experiment concerns HEK293T cells carrying the ATF4 luciferase reporter. As to the kind of experiment: ATF4-Luc assay, in vitro model of Vanishing Cell White Matter Disease (VWMD). As to conditions: Homo sapiens, HEK-293T, 1 μg/mL tunicamycin, 7 hours, One Glo luminescence. Type of experiment: cell-based. The procedure, abridged: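 Stable HEK293T line with human ATF4 5′-UTR–firefly luciferase reporter treated with 1 μg/mL tunicamycin plus 200 nM compound for 7 h. Luminescence read; EC50 derived.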
Take `CCc1cc(C(=O)NC23CC(NC(=O)COc4ccc(Cl)c(F)c4)(C2)C3)[nH]n1` [Compound 275, N-{3-[2-(4-chloro-3-fluorophenoxy)acetamido]bicyclo[1.1.1]pentan-1-yl}-3-ethyl-1H-pyrazole-5-carboxamide]: the concentration giving a half-maximal response (EC50) lay within 50 to 250 nM.

For the molecule `O=C(COc1ccc(F)c(F)c1)NC12CC(NC(=O)c3ccc(OC(F)(F)F)nc3)(C1)C2` [Compound 277, N-{3-[2-(3,4-difluorophenoxy)acetamido]bicyclo[1.1.1]pentan-1-yl}-6-(trifluoromethoxy)pyridine-3-carboxamide], the half-maximal effective concentration (EC50) was in the range of 1000 to 2000 nM.

`O=C(COc1ccc(F)c(F)c1)NC12CC(NC(=O)c3cnc(C(F)F)cn3)(C1)C2` [Compound 278, 5-(difluoromethyl)-N-{3-[2-(3,4-difluorophenoxy)acetamido]bicyclo[1.1.1]pentan-1-yl}pyrazine-2-carboxamide]: the EC50 lay within 250 to 1000 nM.

For the molecule `CCOC(=O)c1cc(C(=O)NC23CC(NC(=O)COc4ccc(Cl)c(F)c4)(C2)C3)ccn1` [Compound 279, ethyl 4-({3-[2-(4-chloro-3-fluorophenoxy)acetamido]bicyclo[1.1.1]pentan-1-yl}carbamoyl)pyridine-2-carboxylate], the concentration for a half-maximal effect (EC50) is 250 to 1000 nM.

For `O=C(COc1ccc(Cl)c(F)c1)NC12CC(NC(=O)c3ccnc(C(=O)O)c3)(C1)C2` [Compound 280, 4-({3-[2-(4-chloro-3-fluorophenoxy)acetamido]bicyclo[1.1.1]pentan-1-yl}carbamoyl)pyridine-2-carboxylic acid], the EC50 is over 2000 nM.

As to `O=C(COc1ccc(Cl)c(Cl)c1)NC12CC(NC(=O)c3cc(CCO)ccn3)(C1)C2` [Compound 281, N-{3-[2-(3,4-dichlorophenoxy)acetamido]bicyclo[1.1.1]pentan-1-yl}-4-(2-hydroxyethyl)pyridine-2-carboxamide], the 50% effective concentration (EC50) lay in the range of 50 to 250 nM.

Turning to `O=C(COc1ccc(Cl)c(F)c1)NC12CC(NC(=O)c3cc(CCO)ccn3)(C1)C2` [Compound 282, N-{3-[2-(4-chloro-3-fluorophenoxy)acetamido]bicyclo[1.1.1]pentan-1-yl}-4-(2-hydroxyethyl)pyridine-2-carboxamide], the EC50 was 250 to 1000 nM.

Regarding `O=C(COc1ccc(Cl)c(F)c1)NC12CC(NC(=O)c3ccc(/C=C/C4CC4)cn3)(C1)C2` [Compound 283, N-{3-[2-(4-chloro-3-fluorophenoxy)acetamido]bicyclo[1.1.1]pentan-1-yl}-5-[(E)-2-cyclopropylethenyl]pyridine-2-carboxamide], the EC50 was under 50 nM.

Take `O=C(COc1ccc(Cl)cc1)NC12CC(Nc3nc(-c4ccc(Cl)cc4)no3)(C1)C2` [Compound 284, 2-(4-chlorophenoxy)-N-(3-{[3-(4-chlorophenyl)-1,2,4-oxadiazol-5-yl]amino}bicyclo[1.1.1]pentan-1-yl)acetamide]: the EC50 is 50 to 250 nM.

Regarding `Cc1ncc(C(=O)NC23CC(NC(=O)COc4ccc(Cl)c(F)c4)(C2)C3)s1` [Compound 285, N-{3-[2-(4-chloro-3-fluorophenoxy)acetamido]bicyclo[1.1.1]pentan-1-yl}-2-methyl-1,3-thiazole-5-carboxamide], the EC50 lay in the range of 50 to 250 nM.

In the case of `Cc1cnc(C(=O)NC23CCC(NC(=O)COc4ccc(Cl)c(F)c4)(CC2)C(O)C3)c(C)n1` (stereo not drawn) [Compound 286, N-{4-[2-(4-chloro-3-fluorophenoxy)acetamido]-3-hydroxybicyclo[2.2.2]octan-1-yl}-3,5-dimethylpyrazine-2-carboxamide], the EC50 was in the range of 250 to 1000 nM.

`O=C(COc1ccc(Cl)cc1)NC12CC(Nc3noc(-c4ccc(Cl)cc4)n3)(C1)C2` [Compound 287, 2-(4-chlorophenoxy)-N-(3-{[5-(4-chlorophenyl)-1,2,4-oxadiazol-3-yl]amino}bicyclo[1.1.1]pentan-1-yl)acetamide]: the concentration giving a half-maximal response (EC50) is 50 to 250 nM.

As to `O=C(COc1ccc(Cl)c(F)c1)NC12CC(NC(=O)c3ccnc(C(=O)NCCO)c3)(C1)C2` [Compound 288, N^4-{3-[2-(4-chloro-3-fluorophenoxy)acetamido]bicyclo[1.1.1]pentan-1-yl}-N^2-(2-hydroxyethyl)pyridine-2,4-dicarboxamide], the half-maximal effective concentration (EC50) was over 2000 nM.

As to `O=C(COc1ccc(Cl)c(F)c1)NC12CC(NC(=O)c3ccc(CCC4CC4)cn3)(C1)C2` [Compound 289, N-{3-[2-(4-chloro-3-fluorophenoxy)acetamido]bicyclo[1.1.1]pentan-1-yl}-5-(2-cyclopropylethyl)pyridine-2-carboxamide], the EC50 was under 50 nM.

As for `CCc1ncc(C(=O)NC23CC(NC(=O)COc4ccc(Cl)c(F)c4)(C2)C3)o1` [Compound 290, N-{3-[2-(4-chloro-3-fluorophenoxy)acetamido]bicyclo[1.1.1]pentan-1-yl}-2-ethyl-1,3-oxazole-5-carboxamide], the EC50 lay within 50 to 250 nM.

`O=C(COc1ccc(F)c(F)c1)NC12CC(NC(=O)c3ccc(CCC4CC4)cn3)(C1)C2` [Compound 291, 5-(2-cyclopropylethyl)-N-{3-[2-(3,4-difluorophenoxy)acetamido]bicyclo[1.1.1]pentan-1-yl}pyridine-2-carboxamide]: the EC50 lay in the range of 50 to 250 nM.

Consider `CCc1ncc(C(=O)NC23CC(NC(=O)COc4ccc(Cl)c(F)c4)(C2)C3)s1` [Compound 292, N-{3-[2-(4-chloro-3-fluorophenoxy)acetamido]bicyclo[1.1.1]pentan-1-yl}-2-ethyl-1,3-thiazole-5-carboxamide], for which the EC50 was in the range of 50 to 250 nM.

With `CCCc1ncc(C(=O)NC23CC(NC(=O)COc4ccc(Cl)c(F)c4)(C2)C3)s1` [Compound 293, N-{3-[2-(4-chloro-3-fluorophenoxy)acetamido]bicyclo[1.1.1]pentan-1-yl}-2-propyl-1,3-thiazole-5-carboxamide], the concentration for a half-maximal effect (EC50) is under 50 nM.

For the molecule `CCc1nc(C)c(C(=O)NC23CC(NC(=O)COc4ccc(Cl)c(F)c4)(C2)C3)s1` [Compound 294, N-{3-[2-(4-chloro-3-fluorophenoxy)acetamido]bicyclo[1.1.1]pentan-1-yl}-2-ethyl-4-methyl-1,3-thiazole-5-carboxamide], the EC50 was in the range of 50 to 250 nM.

As to `Cc1cc(C(=O)NC23CC(NC(=O)COc4ccc(Cl)c(F)c4)(C2)C3)on1` [Compound 295, N-{3-[2-(4-chloro-3-fluorophenoxy)acetamido]bicyclo[1.1.1]pentan-1-yl}-3-methyl-1,2-oxazole-5-carboxamide], the EC50 was 250 to 1000 nM.

Regarding `O=C(COc1ccc(Cl)c(F)c1)NC12CCC(NC(=O)c3cnc(C(F)F)cn3)(C1)C2` [Compound 296, N-{4-[2-(4-chloro-3-fluorophenoxy)acetamido]bicyclo[2.1.1]hexan-1-yl}-5-(difluoromethyl)pyrazine-2-carboxamide], the EC50 was 50 to 250 nM.

For `O=C(COc1ccc(Cl)c(F)c1)NC12CCC(NC(=O)c3ccc(OC(F)(F)F)nc3)(C1)C2` [Compound 298, N-{4-[2-(4-chloro-3-fluorophenoxy)acetamido]bicyclo[2.1.1]hexan-1-yl}-6-(trifluoromethoxy)pyridine-3-carboxamide], the EC50 lay in the range of 50 to 250 nM.

Consider `COCCOc1ccc(C(=O)NC23CC(NC(=O)COc4ccc(Cl)c(F)c4)(C2)C3)nc1` [Compound 299, N-{3-[2-(4-chloro-3-fluorophenoxy)acetamido]bicyclo[1.1.1]pentan-1-yl}-5-(2-methoxyethoxy)pyridine-2-carboxamide], for which the EC50 was in the range of 250 to 1000 nM.

Take `O=C(COc1ccc(Cl)c(F)c1)NC12CC(NC(=O)c3cc(OC(F)F)ccn3)(C1)C2` [Compound 300, N-{3-[2-(4-chloro-3-fluorophenoxy)acetamido]bicyclo[1.1.1]pentan-1-yl}-4-(difluoromethoxy)pyridine-2-carboxamide]: the concentration for a half-maximal effect (EC50) fell in the range of 250 to 1000 nM.

On to `COc1cccc(C(=O)NC23CC(NC(=O)COc4ccc(Cl)c(F)c4)(C2)C3)c1` [Compound 301, N-{3-[2-(4-chloro-3-fluorophenoxy)acetamido]bicyclo[1.1.1]pentan-1-yl}-3-methoxybenzamide], for which the EC50 lay in the range of 250 to 1000 nM.

Turning to `COc1ccc(C(=O)NC23CC(NC(=O)COc4ccc(Cl)c(F)c4)(C2)C3)cc1OC` [Compound 302, N-{3-[2-(4-chloro-3-fluorophenoxy)acetamido]bicyclo[1.1.1]pentan-1-yl}-3,4-dimethoxybenzamide], the 50% effective concentration (EC50) is over 2000 nM.

On to `COc1cc(OC)cc(C(=O)NC23CC(NC(=O)COc4ccc(Cl)c(F)c4)(C2)C3)c1` [Compound 303, N-{3-[2-(4-chloro-3-fluorophenoxy)acetamido]bicyclo[1.1.1]pentan-1-yl}-3,5-dimethoxybenzamide], for which the EC50 is 1000 to 2000 nM.

Turning to `O=C(COc1ccc(Cl)c(F)c1)NC12CC(NC(=O)c3ccco3)(C1)C2` [Compound 304, N-{3-[2-(4-chloro-3-fluorophenoxy)acetamido]bicyclo[1.1.1]pentan-1-yl}furan-2-carboxamide], the EC50 lay within 250 to 1000 nM.

In the case of `O=C(COc1ccc(Cl)c(F)c1)NC12CC(NC(=O)c3ccoc3)(C1)C2` [Compound 305, N-{3-[2-(4-chloro-3-fluorophenoxy)acetamido]bicyclo[1.1.1]pentan-1-yl}furan-3-carboxamide], the 50% effective concentration (EC50) fell in the range of 250 to 1000 nM.

Turning to `O=C(COc1ccc(Cl)c(F)c1)NC12CC(NC(=O)c3ccsc3)(C1)C2` [Compound 306, N-{3-[2-(4-chloro-3-fluorophenoxy)acetamido]bicyclo[1.1.1]pentan-1-yl}thiophene-3-carboxamide], the EC50 lay within 250 to 1000 nM.

Take `O=C(COc1ccc(Cl)c(F)c1)NC12CC(NC(=O)c3ccc[nH]3)(C1)C2` [Compound 307, N-{3-[2-(4-chloro-3-fluorophenoxy)acetamido]bicyclo[1.1.1]pentan-1-yl}-1H-pyrrole-2-carboxamide]: the EC50 lay in the range of 250 to 1000 nM.

Consider `O=C(COc1ccc(Cl)c(F)c1)NC12CC(NC(=O)c3cscn3)(C1)C2` [Compound 308, N-{3-[2-(4-chloro-3-fluorophenoxy)acetamido]bicyclo[1.1.1]pentan-1-yl}-1,3-thiazole-4-carboxamide], for which the 50% effective concentration (EC50) lay in the range of 250 to 1000 nM.

Take `O=C(COc1ccc(Cl)c(F)c1)NC12CC(NC(=O)c3cncs3)(C1)C2` [Compound 309, N-{3-[2-(4-chloro-3-fluorophenoxy)acetamido]bicyclo[1.1.1]pentan-1-yl}-1,3-thiazole-5-carboxamide]: the EC50 was 250 to 1000 nM.
